Measurements: patent US4654373A, “Pharmaceutical formulations containing coenzyme Q10 suitable for topic administration” (Italfarmaco S.A., priority 1982, dated 1987)

Experiments:
New Zealand rabbits = assay: Acute toxicity by topical cutaneous route in rabbits; assay type: in vivo, New Zealand rabbit; conditions: 5 to 20 mg per cm^2 of depilated (intact or abraded) back, immediately and after 8 days
Experimental: Similar experiences were carried out also on a group of 8 New Zealand rabbits of both sexes, having the back depilated. The cutis of 4 of these animals was also abraded.
Two days after the depilation, the compositions of the invention, corresponding to doses of Coenzyme Q10 ranging from 5 to 20 mg per square centimeter of area of the depilated back, were spread on the cutis of the animals so prepared.

dental caries = assay: Dental caries in hamster fed by cariogenic diet; assay type: in vivo; conditions: 25 mg/kg on the dental gingival region
[1] = in excipients compatible with parenteral administration; cited from earlier work
experimental burns = assay: Experimental burn in the rat; assay type: in vivo, male Wistar rat
holes in rabbits' ears = assay: Tissular regeneration and healing of holes in rabbits' ears; assay type: in vivo, New Zealand rabbit; conditions: topical composition, 5 mg/cc, versus not treated rabbits
[2] = Distribution after parenteral (intramuscular) administration (HPLC); assay type: in vivo, rat; conditions: intramuscular 20 mg/kg; for concentration at 0.5 h / concentration at 1 h / concentration at 6 h: rat, im; for concentration at 0.5 h: 30 min.; for concentration at 1 h: 60 min.
Experimental: Rats were treated with 20 mg/kg of Coenzyme Q10 by intramuscular injection and the concentration of the active compound was determined by HPLC after 30 min., 60 min. and 6 hours.

[3] = tested on: dithranol (anthralin) induced inflammatory reaction; assay: Test of dithranol induced cutaneous inflammation; assay type: in vivo, male Guinea pig; conditions: topical 2 mg/cm^2 cutis, both in peanut and soybean oil, 48 hours
Experimental: Male Guinea pigs, weighing 330 g, were epilated at the back and, 24 hours after that, 20 mg of dithranol (anthralin) was intradermically injected into symmetric areas of the back.
Coenzyme Q10 dissolved in peanut and soybean oil was spread on the backs of the animals under test, at the dosage of 2 mg/cm^2 cutis, whereas the control group of animals was subjected to no treatment.
The treated area was covered with Nescofilm and bound up with Micropore.
48 Hours after the administration of the inflammatory agent, the size of the induced inflammatory area was evaluated.

Wistar rats = assay: Acute toxicity by topical cutaneous route in rats; assay type: in vivo, Wistar rat; conditions: 5 mg up to 20 mg per cm^2 of depilated (intact or abraded) skin, immediate and eight days after treatment
Experimental: To assess the toxicity of the product administered by the topical cutaneous route, two groups of forty Wistar rats of both sexes in the same number, carefully depilated on the back, were used.
To a group of these rats, the depilated skin was also abraded. On the cutis so prepared after two days the compositions of the invention containing increasing amounts of Coenzyme Q10 in the ratio of 5 mg up to 20 mg for each square centimeter of depilated skin, were spread for each group of ten rats.

[4] = tested on: carrageenin oedema in the rat paw; assay: Carrageenin oedema test in rats; assay type: in vivo, male rat; conditions: topical, both formulations
Experimental: To male rats weighing 220 g, fasted for 24 hours, 0.1 ml of 1% carrageenin suspension was injected into the plantar surface of a hind paw.
The control group, consisting of 25 animals, was administered with the only carrageenin, two other groups, consisting each of 25 animals, were topically administered with Coenzyme Q10 in form of two different formulations, in peanut oil and olive oil respectively, before the carrageenin injection. The results were expressed by means of a plethysmograph, which measured the size of the oedema 4 hours after the carrageenin injection.

[5] = cited from earlier work
pregnant Wistar rats = assay: Theratogenesis test, topical; conditions: topical on epilated and abraded skin, 50 mg/kg/die, seventh to fifteenth day of pregnancy
Experimental: In order to evaluate if the administration by the topical route of Coenzyme Q10 could interfere on the normal ebryonal or phaetal development, a pharmaceutical composition of the invention corresponding to an amount of Coenzyme Q10 of 50 mg/kg/die was spread on the epilated and abraded skin of ten pregnant Wistar rats.
The administration was carried out from the seventh to the fifteenth day of pregnancy.
The main internal organs were also subjected to observation.

male New Zealand rabbits = assay: Chronic toxicity, topical, 60 days, rabbits; conditions: 50 mg/kg/die, daily for 60 days
Experimental: (§1) These tests were carried out by administering locally on the skin of two groups of 30 male Wistar rats and of 6 male New Zealand rabbits with the skin epilated, the skin of one group being epilated and abraded, a pharmaceutical composition for a total amount of 50 mg/kg/die of Coenzyme Q10.
(§2) The administration went on daily for 60 consecutive days.
(§3) Before the start of the treatment and at the end all the animals were subjected to a series of controls and examinations regarding the ponderal increase, red-cells and white cells count, haemoglobin concentration in the blood, glycemia, azotemia, transaminases and blood total proteins. The urinary elimination was also tested. At the end of treatment all the animals were killed and accurate anatomopathological and histopathological examinations were performed on each animal with particular regard to the zones of treated skin.

[6] = Cutaneous absorption in volunteers; assay type: in vivo, human (health volunteers); conditions: human, skin, topical or ocular, 1 mg/cm^2, corneous layer removed, read-out: mean percent absorption
Experimental: For these tests the method described by Tauber and al. [Arzneimittel Forschung, 26, N7b, 1492 (1976)].
On 4 health volunteers, areas of about 30 cm^2 of skin whose corneous layer had been removed, were spread with a composition corresponding to 1 mg/cm^2 of Coenzyme Q10.
Immediately after the application and after 24 hours from the application on the skin, the composition not absorbed was removed by cotton-wool and the cotton-wool used for the removal was extracted with chloroform/ethanol.
After saponification in presence of pyrogallole the fraction containing Coenzyme Q10 and other neutral fact was extracted with hydrocarbon solvents and purified chromatographically on column.
The spectrophotometric measure was carried out according to the method described by Linn and al. [J. Am. Chem. Soc., 81, 4007 (1959)].

[7] = Distribution after oral administration (HPLC); assay type: in vivo, rat; conditions: oral 50 mg/kg; for concentration at 0.5 h / concentration at 1 h / concentration at 6 h: rat; for concentration at 0.5 h: 30 min.; for concentration at 1 h: 60 min.
Experimental: Rats were treated with 50 mg/kg of Coenzyme Q10 by oral route and the concentration of the active principle was determined by using the HPLC method in several organs after 30 min., 60 min. and 6 hours.

[8] = Cutaneous absorption of Coenzyme Q10 in the rat; assay type: in vivo, male Wistar rat; conditions: topical, 5 mg/kg/cm^2 of skin
Experimental: In order to evaluate the cutaneous absorption of Coenzyme Q10 after its application on the skin a group of male Wistar rats of the average weight of 280 g was used. The animals were epilated on the back and a composition corresponding to a dose of Coenzyme Q10 of 5 mg/kg/cm^2 of skin was applied on the epilated back.
Samples of skin were then removed both from treated and untreated animals at intervals of 1, 3, 6 and 24 hours from treatment. The skin, together with the removed subcutaneous tissue, was homogenized and kept at -20° C. till the moment of analysis.
Samples of 5 g each of tissue were saponified in the presence of pyrogallole.
The fraction containing Coenzyme Q10 and other neutral fats was extracted with hydrocarbon solvents and purified chromatographically on column.
The spectrophotometric measurement was performed according to the method described by Linn B. O., Page A. C., Wong E. L., Gale, P. H., Shunk C. H., Folkers K. [J. Am. Chem. Soc., 81, 4007 (1959)].

[9] = Cutaneous concentration after topical administration (HPLC); assay type: in vivo, rat; conditions: topical 2 mg/cm^2, vegetal oils as solvents and excipients
Experimental: Rats were cutaneously treated with 2 mg/cm^2 of skin of Coenzyme Q10 and the concentration was measured by the HPLC method. The results are listed in Table 3 for two different vehicles.

[10] = oral route; cited from earlier work
male Wistar rats = assay: Chronic toxicity, topical, 60 days, rats; conditions: 50 mg/kg/die, daily for 60 days
Experimental: as §1, §2, §3

[11] = heart, read-out: Mean tissutal concentration
[12] = kidney, read-out: Mean tissutal concentration
[13] = liver, read-out: Mean tissutal concentration
[14] = plasma, read-out: Mean plasmatic concentration
[15] = oral 50-100 mg/dosage (100-200 mg pro die)

In the case of COC1=C(OC)C(=O)C(CC=C(C)CCC=C(C)CCC=C(C)CCC=C(C)CCC=C(C)CCC=C(C)CCC=C(C)CCC=C(C)CCC=C(C)CCC=C(C)C)=C(C)C1=O [Coenzyme Q10, 2,3-dimethoxy-5-methyl-6-decaprenyl-benzoquinone], the “mortality or clear toxicity” value (New Zealand rabbits) is listed as “neither immediately after the administration nor after 8 days, mortality cases or clear toxicity were noticed”, the “treated animals in which onset of dental caries is prevented” value (dental caries) is listed as “more than 50%” and the “solubility (in words)” value [1] is listed as “very low solubility”. The “seriousness of the lesions (in words)” value (experimental burns; preventive topical application, 1-2 mg/cm^2 of skin) was “decreased in fact the seriousness of the lesions”, the “protective effect on experimental burn (in words)” value (experimental burns; topical route) was “protective effect” and the “reduction of the seriousness of the burn (Blue Evans)” value (experimental burns; treated daily, 1-2 mg/cm^2 of skin, 4 consecutive days preceding burn induction) was “more than 50%”. The “seriousness of the burn versus control rats (Blue Evans)” value (experimental burns; treated only once half an hour before burn induction) was “not significantly different”, the “tissular regeneration and healing processes” value (holes in rabbits' ears) was “much faster than in the not treated rabbits” and the “cutaneous concentration (in words)” value [2] was “no concentration in the cutis is present at any time”. For the same compound, the concentration at 0.5 h [2, 11] was 10500 ng/g, the concentration at 1 h [2, 11] was 14300 ng/g and the concentration at 6 h [2, 11] was 16200 ng/g. The concentration at 0.5 h [2, 12] was 9500 ng/g, the concentration at 1 h [2, 12] was 11500 ng/g and the concentration at 6 h [2, 12] was 10200 ng/g. It also gave a concentration at 0.5 h [2, 13] of 11700 ng/g, a concentration at 1 h [2, 13] of 12600 ng/g and a concentration at 6 h [2, 13] of 14400 ng/g. It also gave a concentration at 0.5 h [2, 14] of 270 ng/mL, a concentration at 1 h [2, 14] of 940 ng/mL and a concentration at 6 h [2, 14] of 800 ng/mL. For the same compound, the “decrease of inflammatory areas with respect to non-treated animals” value [3] was 50%, the “mortality, toxic effect or intolerance” value (Wistar rats) was “did not show the appearance of any mortality cases, toxic effect or intolerance” and the “carrageenin oedema inhibition (in words)” value [4] was “partially inhibited”. The “clinical results (in words)” value [5, 15] was “satisfactory clinical results”, the “side-effects (in words)” value [5, 15] was “increases, sometimes intolerably, the side-effects of the drug” and the “change in Coenzyme Q10 in peripheral tissues (in words)” value ([5]; oral administration of high doses) was “no changes in Coenzyme Q10 are detectable”. The “alteration or malformation of phoetuses” value (pregnant Wistar rats) was “no alteration or malformation was noticed”, the “biological parameters versus untreated controls” value (male New Zealand rabbits) was “did not show, in comparison with the untreated control animals, any significative difference in the different biological parameters considered” and the “histological examination of the skin” value (male New Zealand rabbits) was “did not show any pathological change”. For the same compound, the Fa at 24 h [6] was 18.5 ± 6.2%, the “cutaneous concentration (in words)” value [7] was “no appreciable appearance of cutaneous concentration” and the “heart concentration change (in words)” value [7] was “substantial changes occur at the heart level”. For the same compound, the “plasmatic concentration change (in words)” value [7] was “negligeable”, the concentration at 0.5 h [7, 11] was 7100 ng/g and the concentration at 1 h [7, 11] was 12300 ng/g. For the same compound, the concentration at 6 h [7, 11] was 14700 ng/g, the concentration at 0.5 h [7, 12] was 6500 ng/g and the concentration at 1 h [7, 12] was 10100 ng/g. For the same compound, the concentration at 6 h [7, 12] was 15600 ng/g, the concentration at 0.5 h [7, 13] was 4100 ng/g and the concentration at 1 h [7, 13] was 7100 ng/g. It also gave a concentration at 6 h [7, 13] of 9800 ng/g, a concentration at 0.5 h [7, 14] of 170 ng/mL and a concentration at 1 h [7, 14] of 190 ng/mL. For the same compound, the concentration at 6 h [7, 14] was 2700 ng/mL, the “time of highest concentrations in cutaneous tissue” value [8] was “from the third to the sixth hour after the administration” and the “concentration at the cutis level (in words)” value [9] was “A good increase”. For the same compound, the LD50 [10] was “higher than 4 g/kg”, the “biological parameters versus untreated controls” value (male Wistar rats) was “did not show, in comparison with the untreated control animals, any significative difference in the different biological parameters considered” and the “histological examination of the skin” value (male Wistar rats) was “did not show any pathological change”.
